Source: ChEMBL document CHEMBL3758112, “Synthesis and pharmacological evaluation of trifluoromethyl containing 4-(2-pyrimidinylamino)benzamides as Hedgehog signaling pathway inhibitors” (Bioorg Med Chem, 2016)

How the values were obtained:
[1] = Inhibition of hedgehog signalling in mouse NIH3T3 cells stably transfected with Gli-luciferase construct incubated for 48 hrs by dual luciferase reporter gene assay; assay type: cell-based; conditions: NIH3T3, 48 h
[2] = AUC (0 to t) in Sprague-Dawley rat at 1 mg/kg, iv measured during 2 mins to 24 hrs period post dose by LC-MS/MS method; assay type: ADME, organism-based; set-up: time 0.033-24 hr, dose 1 mg/kg, route intravenous; conditions: in vivo
[3] = Cmax in Sprague-Dawley rat at 1 mg/kg, iv measured during 2 mins to 24 hrs period post dose by LC-MS/MS method; assay type: ADME, organism-based; set-up: dose 1 mg/kg, route intravenous; conditions: in vivo
[4] = Apparent volume of distribution in Sprague-Dawley rat at 1 mg/kg, iv measured during 2 mins to 24 hrs period post dose by LC-MS/MS method; assay type: ADME, organism-based; conditions: in vivo, read-out: Vz
[5] = Half life in Sprague-Dawley rat at 1 mg/kg, iv measured during 2 mins to 24 hrs period post dose by LC/MS/MS method; assay type: ADME, organism-based; conditions: in vivo
[6] = Mean residence time (0 to t) in Sprague-Dawley rat at 1 mg/kg, iv measured during 2 mins to 24 hrs period post dose by LC/MS/MS method; assay type: ADME, organism-based; conditions: in vivo
[7] = Clearance in Sprague-Dawley rat at 1 mg/kg, iv measured during 2 mins to 24 hrs period post dose by LC-MS/MS method; assay type: ADME, organism-based; conditions: in vivo
NIH3T3 = assay: Potency index, ratio of vismodegib IC50 to compound IC50 for inhibition of hedgehog signalling in mouse NIH3T3 cells stably transfected with Gli-luciferase construct; assay type: cell-based

O=C(NC1CCN(C(=O)CO)CC1)c1ccc(Nc2ncc(C(F)(F)F)c(-c3ccc(OC(F)(F)F)nc3)n2)cc1
IC50 [1]: > 500 nM

Cc1ccc(CN2CCCC2)cc1NC(=O)c1ccc(Nc2ncc(C(F)(F)F)c(-c3ccc(OC(F)(F)F)cc3)n2)cc1
IC50 [1]: 4.23 nM

Cc1cnc(Nc2ccc(C(=O)Nc3c(C)cccc3C)cc2)nc1-c1ccc(OC(F)(F)F)cc1
IC50 [1]: 1.3 nM

Cc1cccc(C)c1NC(=O)c1ccc(Nc2ncc(F)c(-c3ccc(OC(F)(F)F)cc3)n2)cc1
IC50 [1]: 1.6 nM

O=C(c1ccc(Nc2ncc(C(F)(F)F)c(-c3ccc(OC(F)(F)F)nc3)n2)cc1)N1CCCC(N2CCOCC2)C1 (stereo unspecified)
IC50 [1]: > 500 nM

Cc1ccc(CN2CCOCC2)cc1NC(=O)c1ccc(Nc2ncc(C(F)(F)F)c(-c3ccccn3)n2)cc1
AUC(0-t) [2]: 826 ng·h/mL
Cmax [3]: 1420 ng/mL
Vd [4]: 1.8 L/kg
half-life [5]: 1.03 h
IC50 [1]: 14.2 nM
MRT last [6]: 0.93 h
clearance [7]: 20.1 mL/min/kg

Cc1ccc(CN2CCOCC2)cc1NC(=O)c1ccc(Nc2ncc(C(F)(F)F)c(-c3ccccc3)n2)cc1
AUC(0-t) [2]: 807 ng·h/mL
Cmax [3]: 1190 ng/mL
Vd [4]: 4.13 L/kg
half-life [5]: 2.32 h
IC50 [1]: 102 nM
MRT last [6]: 1.23 h
clearance [7]: 20.9 mL/min/kg

Cc1ccc(CN2CCCCC2)cc1NC(=O)c1ccc(Nc2ncc(C(F)(F)F)c(-c3ccc(OC(F)(F)F)cc3)n2)cc1
IC50 [1]: 3.12 nM

Cc1ccc(CN2CCCC2)cc1NC(=O)c1ccc(Nc2ncc(C(F)(F)F)c(-c3cnn(C)c3)n2)cc1
IC50 [1]: 26.3 nM

Cc1ccc(CN(C)C)cc1NC(=O)c1ccc(Nc2ncc(C(F)(F)F)c(-c3ccccc3)n2)cc1
IC50 [1]: 24.9 nM

Cc1ccc(CN2CCOCC2)cc1NC(=O)c1ccc(Nc2ncc(C(F)(F)F)c(-c3ccc(C#N)cc3)n2)cc1
IC50 [1]: 4.24 nM

Cc1ccc(CN2CCOCC2)cc1NC(=O)c1ccc(Nc2ncc(C(F)(F)F)c(-c3cnn(C)c3)n2)cc1
IC50 [1]: 24.5 nM

CS(=O)(=O)c1ccc(C(=O)Nc2ccc(Cl)c(-c3ccccn3)c2)c(Cl)c1 [VISMODEGIB]
AUC(0-t) [2]: 2460 ng·h/mL
IC50 [1]: 7.2 nM

Cc1ccc(CN2CCOCC2)cc1NC(=O)c1ccc(Nc2ncc(C(F)(F)F)c(-c3ccc(OC(F)(F)F)cc3)n2)cc1
AUC(0-t) [2]: 1960 ng·h/mL
Cmax [3]: 2220 ng/mL
Vd [4]: 5.88 L/kg
half-life [5]: 8.63 h
Ratio IC50 (NIH3T3): 5
IC50 [1]: 1.44 nM
MRT last [6]: 4.95 h
clearance [7]: 7.82 mL/min/kg

CCN1CCN(Cc2ccc(C)c(NC(=O)c3ccc(Nc4ncc(C(F)(F)F)c(-c5ccc(OC(F)(F)F)cc5)n4)cc3)c2)CC1
IC50 [1]: 62.8 nM

COc1ccc(-c2nc(Nc3ccc(C(=O)Nc4cc(CN5CCCC5)ccc4C)cc3)ncc2C(F)(F)F)cn1
IC50 [1]: 9.35 nM

Cc1ccc(CN2CCOCC2)cc1NC(=O)c1ccc(Nc2ncc(C(F)(F)F)c(-c3cccnc3)n2)cc1
IC50 [1]: 56.2 nM

Cc1ccc(CN2CCN(C)CC2)cc1NC(=O)c1ccc(Nc2ncc(C(F)(F)F)c(-c3ccc(OC(F)(F)F)cc3)n2)cc1
AUC(0-t) [2]: 1240 ng·h/mL
Cmax [3]: 844 ng/mL
Vd [4]: 9.22 L/kg
half-life [5]: 9.25 h
IC50 [1]: 5.19 nM
MRT last [6]: 7.15 h
clearance [7]: 11.6 mL/min/kg

Cc1ccc(CN(C)C)cc1NC(=O)c1ccc(Nc2ncc(C(F)(F)F)c(-c3ccc(OC(F)(F)F)cc3)n2)cc1
IC50 [1]: 18.2 nM

CCn1cc(-c2nc(Nc3ccc(C(=O)Nc4cc(CN5CCOCC5)ccc4C)cc3)ncc2C(F)(F)F)cn1
IC50 [1]: 16.9 nM
